Each compound was assayed against T1, EP4 receptor (Homo sapiens, UniProt P35408) (assay: hEP4 cAMP assay (BT549 breast cancer cells, HTRF cAMP, PGE2 stimulation)). Details: antagonistic activity, PGE2 6 nM (EC80).
T1 construct: BT549 breast cancer cells, express high endogenous EP4 levels and very low EP2 levels; host or cells: BT549 breast cancer cells
Format: cell-based
In short: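 BT549 cells, with endogenous EP4 and very low EP2, were preincubated 45 min at room temperature with compound in HBSS/HEPES/BSA buffer with 2 mM IBMX. They were then stimulated 30 min with 6 nM PGE2 (EC80). cAMP was measured by HTRF competitive immunoassay against a calibrator; IC50 from duplicate dose-response as % of DMSO control.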

T1 sequence (P35408 whole entry): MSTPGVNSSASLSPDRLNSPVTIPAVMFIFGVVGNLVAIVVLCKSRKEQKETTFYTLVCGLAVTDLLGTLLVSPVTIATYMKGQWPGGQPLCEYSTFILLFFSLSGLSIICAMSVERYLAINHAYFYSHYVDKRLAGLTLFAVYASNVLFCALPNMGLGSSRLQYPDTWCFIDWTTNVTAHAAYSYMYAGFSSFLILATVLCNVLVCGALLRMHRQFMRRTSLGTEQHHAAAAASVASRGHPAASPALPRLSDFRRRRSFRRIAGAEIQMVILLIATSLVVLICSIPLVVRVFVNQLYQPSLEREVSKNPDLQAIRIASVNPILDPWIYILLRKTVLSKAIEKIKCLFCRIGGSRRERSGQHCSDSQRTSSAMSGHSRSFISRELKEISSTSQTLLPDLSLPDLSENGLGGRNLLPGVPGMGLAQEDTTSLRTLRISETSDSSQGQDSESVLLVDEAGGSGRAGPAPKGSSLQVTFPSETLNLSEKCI

IC50 [nM] | Compound
91 | Cc1sc2c(C)cc(F)cc2c1CCNc1cc(-c2ccc(-c3nc(=O)[nH]o3)cc2)ncn1 [Example 79, 5-(4-{6-[2-(5-Fluoro-2,7-dimethyl-benzo[b]thiophen-3-yl)-ethylamino]-pyrimidin-4-yl}-phenyl)-[1,2,4]oxadiazol-3(2H)-one [tautomeric form: 5-(4-(6-((2-(5-fluoro-2,7-dimethylbenzo[b]thiophen-3-yl)ethyl)amino)pyrimidin-4-yl)phenyl)-[1,2,4]oxadiazol-3-ol]]
138 | Cc1sc2c(C)cc(F)cc2c1CCNc1cc(-c2cc3c(C(=O)O)cccc3[nH]2)ncn1 [Example 82, 2-{6-[2-(5-Fluoro-2,7-dimethyl-benzo[b]thiophen-3-yl)-ethylamino]-pyrimidin-4-yl}-1H-indole-4-carboxylic acid]
111 | COc1cc(Cl)cc2c(CCNc3cc(-c4ccc(C(=O)O)c(OC5CC5)c4)ncn3)c(C)oc12 [Example 83, 4-{6-[2-(5-Chloro-7-methoxy-2-methyl-benzofuran-3-yl)-ethylamino]-pyrimidin-4-yl}-2-cyclopropoxy-benzoic acid]
117 | COc1ccc(F)c2c(CCNc3cc(-c4ccc(C(=O)O)c(OC5CC5)c4)ncn3)c(C)sc12 [Example 84, 2-Cyclopropoxy-4-{6-[2-(4-fluoro-7-methoxy-2-methyl-benzo[b]thiophen-3-yl)-ethylamino]-pyrimidin-4-yl}-benzoic acid]
258 | COc1cc(F)c(F)c2c(CCNc3cc(-c4ccc(C(=O)O)c(OC5CC5)c4)ncn3)c(C)oc12 [Example 85, 2-Cyclopropoxy-4-{6-[2-(4,5-difluoro-7-methoxy-2-methyl-benzofuran-3-yl)-ethylamino]-pyrimidin-4-yl}-benzoic acid]
289 | Cc1sc2c(C)cc(F)cc2c1CCNc1cc(-c2ccc(C(=O)O)c(OCCO)c2)ncn1 [Example 86, 4-{6-[2-(5-fluoro-2,7-dimethyl-benzo[b]thiophen-3-yl)-ethylamino]-pyrimidin-4-yl}-2-(2-hydroxy-ethoxy)-benzoic acid]
451 | CCCSc1cc(-c2cc(NCCc3c(C)sc4c(C)cccc34)ncn2)ccc1C(=O)O [Example 87, 4-{6-[2-(2,7-Dimethyl-benzo[b]thiophen-3-yl)-ethylamino]-pyrimidin-4-yl}-2-propylsulfanyl-benzoic acid]
695 | CCCSc1cc(-c2cc(NCCc3c(C)sc4ccccc34)ncn2)ccc1C(=O)O [Example 88, 4-{6-[2-(2-Methyl-benzo[b]thiophen-3-yl)-ethylamino]-pyrimidin-4-yl}-2-propylsulfanyl-benzoic acid]
1140 | CCCSc1cc(-c2cc(NCCc3c(C)oc4ccccc34)ncn2)ccc1C(=O)O [Example 89, 4-{6-[2-(2-Methyl-benzofuran-3-yl)-ethylamino]-pyrimidin-4-yl}-2-propylsulfanyl-benzoic acid]
338 | Cc1sc2c(C)cccc2c1CCNc1cc(-c2ccc(C(=O)O)c(SC(C)C)c2)ncn1 [Example 90, 4-{6-[2-(2,7-Dimethyl-benzo[b]thiophen-3-yl)-ethylamino]-pyrimidin-4-yl}-2-isopropylsulfanyl-benzoic acid]
539 | Cc1sc2ccccc2c1CCNc1cc(-c2ccc(C(=O)O)c(SC(C)C)c2)ncn1 [Example 91, 2-Isopropylsulfanyl-4-{6-[2-(2-methyl-benzo[b]thiophen-3-yl)-ethylamino]-pyrimidin-4-yl}-benzoic acid]
672 | Cc1oc2ccccc2c1CCNc1cc(-c2ccc(C(=O)O)c(SC(C)C)c2)ncn1 [Example 92, 2-Isopropylsulfanyl-4-{6-[2-(2-methyl-benzofuran-3-yl)-ethylamino]-pyrimidin-4-yl}-benzoic acid]
71 | CCc1cc(-c2cc(NCCc3c(C)sc4c(C)cc(F)cc34)ncn2)cc(C)c1CC(=O)O [Example 194, (2-Ethyl-4-{6-[2-(5-fluoro-2,7-dimethyl-benzo[b]thiophen-3-yl)-ethylamino]-pyrimidin-4-yl}-6-methyl-phenyl)-acetic acid]
48 | Cc1sc2c(C)cc(F)cc2c1CCNc1cc(-c2ccc(C(=O)O)c(OC3CC3)c2)ncn1 [Example 195, 2-Cyclopropoxy-4-{6-[2-(5-fluoro-2,7-dimethyl-benzo[b]thiophen-3-yl)-ethylamino]-pyrimidin-4-yl}-benzoic acid]
100 | Cc1sc2c(C)cc(F)cc2c1CCNc1cc(-c2ccc(CC(=O)O)c(OC3CC3)c2)ncn1 [Example 196, (2-Cyclopropoxy-4-{6-[2-(5-fluoro-2,7-dimethyl-benzo[b]thiophen-3-yl)-ethylamino]-pyrimidin-4-yl}-phenyl)-acetic acid]
297 | CCOc1cc(-c2cc(NCCc3c(C)sc4c(C)cc(F)cc34)ncn2)ccc1-c1cc(O)no1 [Example 202, 5-(2-Ethoxy-4-{6-[2-(5-fluoro-2,7-dimethyl-benzo[b]thiophen-3-yl)-ethylamino]-pyrimidin-4-yl}-phenyl)-isoxazol-3-ol [tautomeric form: 5-(2-ethoxy-4-(6-((2-(5-fluoro-2,7-dimethylbenzo[b]thiophen-3-yl)ethyl)amino)pyrimidin-4-yl)phenyl)isoxazol-3(2H)-one]]

Source: patent US11325899B2, “Benzofurane and benzothiophene derivatives as PGE2 receptor modulators” (IDORSIA PHARMACEUTICALS LTD, priority 2017, dated 2022)
